# Reference: US6596772B1, “Phosphate mimics and methods of treatment using phosphatase inhibitors” (Sugen, Inc., priority 1999, dated 2003)
# Tests used:
# PTPs = experiment: Direct comparison of R groups against the PTPs; assay type: biochemical, human; conditions: change of the R group from CF3SO2NH—
# Method: (§1) The effect of the compounds on PTP was evaluated at 25° C. using pNPP or FDP as substrate. PTP was pre-incubated for fifteen minutes with various concentrations of compound. Substrate was then added at a fixed concentration (usually equal to the Km previously calculated). After 10 minutes, NaOH was added to stop the reaction. The hydrolysis of pNPP was followed at 410 nm on the Biotek Powerwave 200 microplate scanning spectrophotometer. The percent inhibition was calculated as follows: Percent Inhibition=[(control signal−compound signal)/control signal] ×100%. The IC50 was then determined by interpolation of a percent inhibition versus compound concentration plot.
# PTP ZETA = target: T1, PTP ZETA (Homo sapiens, UniProt P23471); experiment: PTP IC50 assay, pNPP or FDP as substrate; assay type: biochemical; conditions: 25° C.
# T1 construct: made in house; host or cells: E. coli BL-21 (pGEX 6P-1)
# Method: (§2) The following in vitro assay procedure is preferred to determine the level of activity and effect of the different compounds of the present invention on one or more of the PTPs. Similar assays can be designed along the same lines for any PTP using techniques well known in the art.
# (§3) The catalytic assays described herein are performed in a 96-well format. The general procedure begins with the determination of PTP optimal pH using a three-component buffer system that minimizes ionic strength variations across a wide range of buffer pH. Next, the Michaelis-Menten constant, or Km, is determined for each specific substrate-PTP system. This Km value is subsequently used as the substrate reaction concentration for compound screening. Finally, the test PTP is exposed to varying concentrations of compound for fifteen minutes and allowed to react with substrate for ten minutes. The results are plotted as percent inhibition versus compound concentration and the IC50 interpolated from the plot.
# (§4) All assays were performed using pNPP or FDP as substrate. The optimum pH was determined for each PTP used.
# (§5) PTPase activity was assayed at 25° C. in a 100-μl reaction mixture containing an appropriate concentration of pNPP or FDP as substrate. The reaction was initiated by addition of the PTP and quenched after 10 min by addition of 50 μl of IN NaOH. The non-enzymatic hydrolysis of the substrate was corrected by measuring the control without the addition of the enzyme. The amount of p-nitrophenol produced was determined from the absorbance at 410 nm. To determine the kinetic parameter, Km, the initial velocities were measured at various substrate concentrations and the data were fitted to the Michaelis equation where velocity=(Vmax*[S])/(Km+[S]), and [S]=substrate reaction concentration.
# as §1
# (§6) Plasmids designed for bacterial GST-PTP fusion protein expression were derived by insertion of PCR-generated human PTP fragments into pGEX vectors (Pharmacia Biotech). Several of these constructs were then used to subclone phosphatases into pFastBac-1for expression in Sf-9 insect cells. Oligonucleotides used for the initial amplification of PTP genes are shown below. The cDNAs were prepared using the Gilbo BRL superscript preamplification system on RNAs purchased from Clontech.
# The PTP Zeta cDNA was amplified from human placenta single strand cDNA (Clontech RNA) using the following oligonucleotides 5′oligo: 5′-[…]-3′ (SEQ ID NO: 10) 3′oligo: 5′-[…]-3′ (SEQ ID NO: 11) and subsequently ligated into pGEX 6P-1 Eco RI/Xho I sites.
# PTP PEST = target: T2, PTP PEST (Homo sapiens, UniProt Q05209); experiment: PTP IC50 assay, pNPP or FDP as substrate; assay type: biochemical; conditions: 25° C.
# T2 construct: made in house; host or cells: E. coli BL-21 (pGEX 6P-1)
# T2 sequence (Q05209 1-343 limits assumed): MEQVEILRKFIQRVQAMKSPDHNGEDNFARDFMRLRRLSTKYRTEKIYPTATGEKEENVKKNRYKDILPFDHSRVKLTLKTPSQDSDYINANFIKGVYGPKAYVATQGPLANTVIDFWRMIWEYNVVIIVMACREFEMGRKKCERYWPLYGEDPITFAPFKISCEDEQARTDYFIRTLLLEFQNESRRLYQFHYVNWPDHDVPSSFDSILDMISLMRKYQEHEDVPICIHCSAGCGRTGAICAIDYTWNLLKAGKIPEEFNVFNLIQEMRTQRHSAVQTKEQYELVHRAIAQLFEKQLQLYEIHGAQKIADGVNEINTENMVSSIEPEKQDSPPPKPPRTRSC
# Method: as §2, §3, §4, §5, §1, §6
# The PTP PEST CDNA was amplified from an HeLa cDNA library (Clonetech RNA) using the following oligonucleotides: 5′oligo: 5′-[…]-3′ (SEQ ID NO: 14) 3′oligo: 5′-[…]-3′ (SEQ ID NO: 15) It was subsequently ligated into the Eco RI/Xho I sites of pGEX 6P-1.
# PTP DEP1 = target: T3, PTP DEP1 (Homo sapiens, UniProt Q12913); experiment: PTP IC50 assay, pNPP or FDP as substrate; assay type: biochemical; conditions: 25° C.
# T3 construct: GST-fusion proteins encompassing the entire cytoplasmic domain was done by PCR; made in house; host or cells: E. coli BL-21 (pGEX 2T)
# T3 sequence (Q12913 997-1337 limits assumed): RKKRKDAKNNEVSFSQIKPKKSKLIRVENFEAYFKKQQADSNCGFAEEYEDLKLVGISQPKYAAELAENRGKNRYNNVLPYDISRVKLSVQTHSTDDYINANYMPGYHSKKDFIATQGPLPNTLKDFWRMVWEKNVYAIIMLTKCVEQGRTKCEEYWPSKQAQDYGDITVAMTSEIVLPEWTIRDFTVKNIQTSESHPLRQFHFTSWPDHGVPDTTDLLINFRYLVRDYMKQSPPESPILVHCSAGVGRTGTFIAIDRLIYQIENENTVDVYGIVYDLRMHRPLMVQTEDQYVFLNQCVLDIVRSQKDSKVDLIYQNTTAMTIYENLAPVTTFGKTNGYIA
# Method: as §2, §3, §4, §5, §1, §6
# The full length DEP1 cDNA was isolated from a human mammary cDNA library (Clontech). The construction of GST-fusion proteins encompassing the entire cytoplasmic domain was done by PCR using the following oligos; 5′oligo: 5′-[…]-3′ (SEQ ID NO: 20) 3′oligo: 5′-[…]-3′ (SEQ ID NO: 21) It was subsequently ligated into the Eco RI/Bam H1 sites of pGEX 2T.
# T1 sequence (P23471 1667-2028 limits assumed): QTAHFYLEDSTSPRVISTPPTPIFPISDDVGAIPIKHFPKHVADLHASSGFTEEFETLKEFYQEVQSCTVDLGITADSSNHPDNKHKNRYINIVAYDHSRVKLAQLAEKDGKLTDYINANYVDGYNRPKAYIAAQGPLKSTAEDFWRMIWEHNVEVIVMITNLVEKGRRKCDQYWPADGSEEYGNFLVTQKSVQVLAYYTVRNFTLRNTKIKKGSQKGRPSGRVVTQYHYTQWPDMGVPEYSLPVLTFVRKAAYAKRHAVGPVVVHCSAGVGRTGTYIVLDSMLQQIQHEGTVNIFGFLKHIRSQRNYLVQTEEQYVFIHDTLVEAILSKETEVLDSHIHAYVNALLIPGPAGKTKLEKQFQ
IC50 (PTP ZETA) [µM],IC50 (PTP PEST) [µM],IC50 (PTP DEP1) [µM],SMILES,activity relative to the CF3SO2NH— compound (PTPs)
> 100,25.6,16.5,"O=S(=O)(c1ccc(COc2ccc(S(=O)(=O)C(F)(F)F)cc2)cc1)C(F)(F)F [Example 2, 4-Trifluoromethylsulfonylbenzyl 4-trifluoromethylsulfonylphenyl ether]",–
> 100,> 100,40.9,"O=C(c1ccccc1)N(Cc1ccc(S(=O)(=O)C(F)(F)F)cc1)Cc1ccc(S(=O)(=O)C(F)(F)F)cc1 [Example 3, N,N-Bis(4-trifluoromethylsulfonylbenzyl)benzamide]",–
> 100,> 100,> 100,"O=C(NCc1ccc(S(=O)(=O)C(F)(F)F)cc1)c1ccc(S(=O)(=O)C(F)(F)F)cc1 [Example 5, N-(4-Trifluoromethylsulfonylbenzyl)-4-trifluoromethylsulfonylbenzamide]",–
> 100,13.3,> 100,"O=S(=O)(Nc1ccc(CCc2ccc(NS(=O)(=O)C(F)(F)F)cc2)cc1)C(F)(F)F [Example 66, 1,2-Bis(4-trifluoromethylsulfonamidophenyl)ethane]",–
> 100,10.5,85.6,"Cc1cc(NS(=O)(=O)C(F)(F)F)ccc1CCc1ccc(NS(=O)(=O)C(F)(F)F)cc1C [Example 67, 1,2-Bis(2-methyl-4-trifluoromethylsulfonamidophenyl)ethane]",–
> 100,9.33,25,"CC(C)(COc1ccc(NS(=O)(=O)C(F)(F)F)cc1)COc1ccc(NS(=O)(=O)C(F)(F)F)cc1 [Example 68, 1,3-Bis(4-trifluoromethylsulfonamidophenoxy)-2,2-dimethylpropane]",–
> 100,6.75,24.5,"O=S(=O)(Nc1ccc(OCCCCOc2ccc(NS(=O)(=O)C(F)(F)F)cc2)cc1)C(F)(F)F [Example 70, 1,4-Bis(4-trifluoromethylsulfonamidophenoxy)butane]",–

# Continued, compound first:
SMILES,IC50 (PTP ZETA) [µM],IC50 (PTP PEST) [µM],IC50 (PTP DEP1) [µM],activity relative to the CF3SO2NH— compound (PTPs)
CS(=O)(=O)Nc1ccc(Oc2ccc(Oc3ccc(NS(C)(=O)=O)cc3)cc2)cc1 [CH3SO2NH—],–,–,–,dramatic decrease in activity
"O=S(=O)(c1ccc(COCc2ccc(S(=O)(=O)C(F)(F)F)cc2)cc1)C(F)(F)F [Example 1, Bis (4-trifluoromethylsulfonylbenzyl) ether]",> 100,> 100,24.2,–
"O=S(=O)(c1ccc(CCc2ccc(S(=O)(=O)C(F)(F)F)cc2)cc1)C(F)(F)F [Example 4, 1,2-Bis(4-trifluoromethylsulfonylphenyl)ethane]",> 100,> 100,26.1,–
"O=C(NCc1ccc(S(=O)(=O)C(F)(F)F)cc1)c1ccccc1 [Example 6, N-(4-Trifluoromethylsulfonylbenzyl)benzamide]",> 100,> 100,> 100,–
"O=S(=O)(Nc1ccc(OCCCOc2ccc(NS(=O)(=O)C(F)(F)F)cc2)cc1)C(F)(F)F [Example 69, 1,3-Bis(4-trifluoromethylsulfonamidophenoxy)propane]",> 100,7.86,> 100,–
"O=S(=O)(Nc1ccc(Oc2ccc(Oc3ccc(NS(=O)(=O)C(F)(F)F)cc3)cc2)cc1)C(F)(F)F [Example 71, 1,4-Bis(4-trifluoromethylsulfonamidophenoxy)benzene]",64.3,0.98,49,–
Nc1ccc(Oc2ccc(Oc3ccc(N)cc3)cc2)cc1 [NH2],–,–,–,complete loss of activity
